Source: patent publication US20170239237A1, “PYRROLOQUINOLINE DERIVATIVES AS 5-HT6 ANTAGONISTS, PREPARATION METHOD AND USE THEREOF” (Uniwersytet Jagiellonski, priority 2013, published 2017)
Like-named read-outs stand apart in the source and are kept apart here. Marks after values point to notes of the source that are not given here.

How the values were obtained:
Wistar rats [1] = test: Forced swim test (FST) in Wistar rats; format: in vivo, rat; conditions: for Minimum effective dose, forced swim test in rats (potential antidepressant properties): IP, 60 minutes before the test, Wistar rats
Experimental: (§1) For intraperitoneal (i.p.) administration: to the desired quantity of the solid compound in a glass beaker, required volume of sterile water for injection was added and swirled with glass bar until complete dissolution of the compound.
(§2) Animals. Male Wistar rats weighing 220-250 g were used in the test. […] All animals were kept in an environmentally controlled rooms (ambient temperature 22±2° C; relative humidity 50-60%; 12:12 light:dark cycle, lights on at 8:00). They were allowed to acclimatize with the environment for one week before commencement of the experiments. Standard laboratory food (Ssniff M-Z) and filtered water were freely available. The experiments were conducted in the light phase between 09.00 and 14.00 hours. 1 h before the start of the experiment, rats were transferred to the experimental room for acclimation.
Apparatus and procedure. […] On the first day of experiment, the animals were gently individually placed in Plexiglas cylinders (40 cm high, 18 cm in diameter) containing 15 cm of water maintained at 25° C. for 15 min. Upon removal from water, the rats were placed in a Plexiglas box for 30 min under a 60-W bulb to dry off. On the following day, the rats were placed again in the cylinder and the total duration of immobility was recorded throughout the 5-min test period. Fresh water was used for each animal.
(§3) Experimental design. The compounds were administered IP, 60 minutes before the test.
(§4) Drugs. The experimental compounds were dissolved in the distilled water. All compounds were administrated in the volume of 2 ml/kg.

Wistar rats [2] = test: Conflict drinking test (Vogel test) in Wistar rats; format: in vivo, rat; conditions: for Minimum effective dose, conflict drinking (Vogel test) in rats (potential anxiolytic properties): IP, 60 minutes before the test, Wistar rats; for active dose in the conflict drinking test (Vogel test), increasing number of licks and shocks received: rats
Experimental: as §1, §2
Apparatus and procedure. […] Experimental chambers were connected to PC software by control chassis and electric shocks' generator. On the first day of the experiment, the rats were adapted to the test chambers for 10 min. […] Afterwards, they were allowed a 30-min free-drinking session in their home cages. […] Recording data started immediately after the first lick and every 20 licks rats were punished with an electric shock (0.5 mA, lasting 1 s). The impulses were released via the spout of the drinking bottles. If a rat was drinking when an impulse was released, it received a shock. The number of licks and the number of shocks received during a 5-min experimental session was recorded automatically.
as §3, §4

M1 receptors = biological target: T1, M1 receptors (Homo sapiens, UniProt P11229); test: biochemical; conditions: read-out: % inhibition of control binding at 10^−6M, M1
T1 sequence (P11229 1-460): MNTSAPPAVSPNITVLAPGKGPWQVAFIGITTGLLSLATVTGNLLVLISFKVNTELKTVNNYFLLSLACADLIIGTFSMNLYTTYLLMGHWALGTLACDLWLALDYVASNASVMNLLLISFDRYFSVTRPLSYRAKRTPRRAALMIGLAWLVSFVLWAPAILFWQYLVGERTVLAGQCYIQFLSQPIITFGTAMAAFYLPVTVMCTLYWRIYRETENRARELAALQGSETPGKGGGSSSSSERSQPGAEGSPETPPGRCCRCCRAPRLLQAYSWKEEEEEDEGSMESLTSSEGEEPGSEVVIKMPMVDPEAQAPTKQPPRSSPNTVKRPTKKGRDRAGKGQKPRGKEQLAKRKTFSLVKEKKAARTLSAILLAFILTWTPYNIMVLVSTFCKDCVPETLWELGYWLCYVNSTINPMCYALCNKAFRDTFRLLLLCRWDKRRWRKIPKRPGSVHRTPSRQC
Experimental: (§5) Each compound was tested in duplicate at 10^-6 M concentration.

5-HT2C receptors = biological target: T2, 5-HT2C receptors (Homo sapiens, UniProt P28335); test: biochemical; conditions: read-out: % inhibition of control binding at 10^−6M, 5-HT2C
T2 sequence (P28335 33-458): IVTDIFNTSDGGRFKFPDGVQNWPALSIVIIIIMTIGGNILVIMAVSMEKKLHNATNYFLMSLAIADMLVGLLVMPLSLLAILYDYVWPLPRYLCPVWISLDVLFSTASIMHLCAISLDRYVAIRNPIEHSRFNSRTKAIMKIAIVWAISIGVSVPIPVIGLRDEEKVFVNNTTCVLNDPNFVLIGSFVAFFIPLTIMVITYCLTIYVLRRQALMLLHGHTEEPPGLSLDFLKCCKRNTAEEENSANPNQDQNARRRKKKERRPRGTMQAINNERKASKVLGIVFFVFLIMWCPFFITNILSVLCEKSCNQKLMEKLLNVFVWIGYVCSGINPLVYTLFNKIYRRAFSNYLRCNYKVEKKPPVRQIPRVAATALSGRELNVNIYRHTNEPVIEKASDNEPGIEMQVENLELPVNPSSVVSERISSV
Experimental: as §5

D3 receptors = D3 receptors (Homo sapiens, UniProt P35462); test: biochemical; conditions: read-out: % inhibition of control binding at 10^−6M, D3
Experimental: as §5

5-HT7 receptor = 5-HT7 receptor (Homo sapiens, UniProt P34969); test: Radioligand binding, 5-HT7 ([3H]-5-CT displacement)
dopamine D2L receptor = dopamine D2L receptor (Homo sapiens, UniProt P14416); test: Radioligand binding, D2 ([3H]-raclopride displacement)
5-HT1A receptor = biological target: T3, 5-HT1A receptor (Homo sapiens, UniProt P08908); test: Radioligand binding, 5-HT1A ([3H]-8-OH-DPAT displacement)
T3 sequence (P08908 1-422): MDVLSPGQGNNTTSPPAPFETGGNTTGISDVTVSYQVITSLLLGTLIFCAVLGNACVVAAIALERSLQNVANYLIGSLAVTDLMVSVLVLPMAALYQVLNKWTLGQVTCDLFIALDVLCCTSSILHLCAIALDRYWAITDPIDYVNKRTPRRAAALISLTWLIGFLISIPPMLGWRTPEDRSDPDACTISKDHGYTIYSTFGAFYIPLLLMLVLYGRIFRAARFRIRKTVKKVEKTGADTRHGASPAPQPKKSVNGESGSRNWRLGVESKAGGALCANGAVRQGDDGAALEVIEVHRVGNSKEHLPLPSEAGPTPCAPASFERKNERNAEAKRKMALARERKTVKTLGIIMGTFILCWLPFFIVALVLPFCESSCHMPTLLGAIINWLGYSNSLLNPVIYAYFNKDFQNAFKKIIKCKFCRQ

5-HT6 receptor [3] = biological target: T4, 5-HT6 receptor (Homo sapiens, UniProt P50406); test: Radioligand binding, 5-HT6 ([3H]-LSD displacement); conditions: for displacement % at 10^−6M, 5-HT6: values marked c in the 5-HT6 column
5-HT6 receptor [4] = biological target: T4, 5-HT6 receptor; test: CHO-human-5HT6-Aequorin functional assay (ago-/antagonism); conditions: test concentration not given; for % inhibition of control agonist response: agonist effect, CHO-human-5HT6-Aequorin cells; for % inhibition of control antagonist response: antagonist effect vs 10^-6 M α-methylserotonin induced luminescence
Sprague-Dawley rats = test: Novel object recognition (NOR) test in Sprague-Dawley rats, PCP-induced deficit; format: in vivo, rat
Experimental: Rats were allowed to acclimatize for at least 7 days before the start of the experimental procedure. During this week animals were handled for at least 3 times. Behavioral testing was carried out during the light phase of the light/dark cycle. At least 1 h before the start of the experiment, rats were transferred to the experimental room for acclimation.
Apparatus and procedure. Rats were tested in a dimly lit (25 lx) “open field” apparatus made of a dull gray plastic (66×56×30 cm). After each measurement, the floor was cleaned and dried.
The procedure lasting for 2 days consisted of the habituation to the test arena (without any objects) for 5 min. The test session comprising of two trials separated by an inter-trial interval (ITI) of 1 h was carried out on the next day. […]
Exploration time of the objects and the distance traveled were measured using the Any-maze® video tracking system. Based on exploration time (E) of two objects during T2, discrimination index (DI) was calculated according to the formula: […]

[5] = read-out: Ki D2, cloned human receptor in HEK293, three independent experiments, SEM ± 22%
[6] = read-out: Ki 5-HT1A, cloned human receptor in HEK293, three independent experiments, SEM ± 22%

Chain of dopamine D2L receptor (P14416 whole entry): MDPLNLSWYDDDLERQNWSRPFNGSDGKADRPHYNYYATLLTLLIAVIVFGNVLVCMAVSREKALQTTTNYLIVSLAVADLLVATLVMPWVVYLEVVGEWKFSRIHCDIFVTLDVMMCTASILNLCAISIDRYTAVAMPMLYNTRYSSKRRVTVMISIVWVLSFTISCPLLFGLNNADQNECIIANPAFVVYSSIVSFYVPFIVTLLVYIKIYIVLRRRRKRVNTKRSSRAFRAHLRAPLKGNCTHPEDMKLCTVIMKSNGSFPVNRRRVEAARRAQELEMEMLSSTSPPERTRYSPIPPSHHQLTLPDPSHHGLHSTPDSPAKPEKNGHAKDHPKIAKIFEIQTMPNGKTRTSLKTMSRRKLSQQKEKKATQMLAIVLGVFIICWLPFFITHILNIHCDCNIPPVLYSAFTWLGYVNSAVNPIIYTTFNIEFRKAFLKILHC
Chain of 5-HT7 receptor (P34969 1-432 limits assumed): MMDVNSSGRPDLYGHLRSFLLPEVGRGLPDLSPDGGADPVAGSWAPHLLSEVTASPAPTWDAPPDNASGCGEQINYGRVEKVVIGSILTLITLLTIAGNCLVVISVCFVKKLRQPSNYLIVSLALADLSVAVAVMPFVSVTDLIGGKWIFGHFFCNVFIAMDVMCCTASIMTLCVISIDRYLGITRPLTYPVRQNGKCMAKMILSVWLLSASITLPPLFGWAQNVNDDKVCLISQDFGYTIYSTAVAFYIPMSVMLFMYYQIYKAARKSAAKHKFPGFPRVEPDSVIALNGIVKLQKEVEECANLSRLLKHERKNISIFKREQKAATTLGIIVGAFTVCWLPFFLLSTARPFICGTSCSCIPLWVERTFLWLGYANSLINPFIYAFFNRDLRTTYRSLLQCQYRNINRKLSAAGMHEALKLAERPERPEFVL
T4 sequence (P50406 whole entry): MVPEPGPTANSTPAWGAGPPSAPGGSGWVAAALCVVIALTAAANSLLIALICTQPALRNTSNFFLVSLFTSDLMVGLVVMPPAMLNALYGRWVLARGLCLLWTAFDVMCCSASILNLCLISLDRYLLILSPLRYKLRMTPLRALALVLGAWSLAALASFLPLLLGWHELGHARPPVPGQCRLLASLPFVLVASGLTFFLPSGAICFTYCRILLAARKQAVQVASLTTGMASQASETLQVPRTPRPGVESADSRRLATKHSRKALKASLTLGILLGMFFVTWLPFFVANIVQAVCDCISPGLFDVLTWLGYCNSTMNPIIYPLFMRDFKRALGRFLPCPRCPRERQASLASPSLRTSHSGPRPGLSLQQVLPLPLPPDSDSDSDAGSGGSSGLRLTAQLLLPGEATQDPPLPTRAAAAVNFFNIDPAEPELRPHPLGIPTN
Chain of D3 receptors (P35462 whole entry): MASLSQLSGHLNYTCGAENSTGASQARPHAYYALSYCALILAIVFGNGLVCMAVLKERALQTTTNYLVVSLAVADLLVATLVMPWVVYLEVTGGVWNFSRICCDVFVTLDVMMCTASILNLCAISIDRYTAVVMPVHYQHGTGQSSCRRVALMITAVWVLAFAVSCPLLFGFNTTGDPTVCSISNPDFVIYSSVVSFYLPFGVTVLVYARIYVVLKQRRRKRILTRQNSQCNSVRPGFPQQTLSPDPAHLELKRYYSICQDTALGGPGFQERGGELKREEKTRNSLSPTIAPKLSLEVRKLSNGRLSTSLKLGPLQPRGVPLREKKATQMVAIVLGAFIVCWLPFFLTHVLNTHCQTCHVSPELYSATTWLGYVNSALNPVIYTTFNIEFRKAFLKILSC

Structure (SMILES)	Minimum effective dose, forced swim test in rats (potential antidepressant properties) (Wistar rats [1]) [mg/kg]	Minimum effective dose, conflict drinking (Vogel test) in rats (potential anxiolytic properties) (Wistar rats [2]) [mg/kg]	Ki (5-HT7 receptor) [nM]	Ki (dopamine D2L receptor) [nM]	Ki (5-HT1A receptor) [nM]	% inhibition of control agonist response (5-HT6 receptor [4]) [%]	% inhibition of control antagonist response (5-HT6 receptor [4]) [%]	also measured
O=S(=O)(c1cccc(Cl)c1)n1ccc2c(N[C@H]3CCNC3)nc3ccccc3c21 [Compound 6, (S)-1-((3-chlorophenyl)sulfonyl)-N-(pyrrolidin-3-yl)-1H-pyrrolo[3,2-c]quinolin-4-amine]	10	3	4990	1010	2350			inhibition at 1 µM (M1 receptors): 9%; inhibition at 1 µM (5-HT2C receptors): 21%; inhibition at 1 µM (D3 receptors): 69%
O=S(=O)(c1cccc(F)c1)n1ccc2c(N[C@@H]3CCNC3)nc3ccccc3c21 [Compound 10, (R)-1-((3-fluorophenyl)sulfonyl)-N-(pyrrolidin-3-yl)-1H-pyrrolo[3,2-c]quinolin-4-amine]		10						displacement % at 10^−6M, 5-HT6 (5-HT6 receptor [3]): 100^c %
O=S(=O)(c1cccc(Cl)c1)n1ccc2c(N3CCNCC3)nc3ccccc3c21 [Compound 29, 1-((3-chlorophenyl)sulfonyl)-4-(piperazin-1-yl)-1H-pyrrolo[3,2-c]quinoline]	>10	10						melting point: 161 to 163 °C; inhibition at 1 µM (M1 receptors): -11%; inhibition at 1 µM (5-HT2C receptors): 13%; inhibition at 1 µM (D3 receptors): 66%; Ki (5-HT7 receptor; read-out: Ki 5-HT7): 1790 nM; Ki (dopamine D2L receptor; [5]): 1340 nM; Ki (5-HT1A receptor; [6]): 773 nM
O=S(=O)(c1cccc(F)c1)n1ccc2c(N3CCNCC3)nc3ccccc3c21 [Compound 30, 1-((3-fluorophenyl)sulfonyl)-4-(piperazin-1-yl)-1H-pyrrolo[3,2-c]quinoline]	10	10						Ki (5-HT1A receptor; [6]): 437 nM
Nc1ccc(S(=O)(=O)n2ccc3c(N4CCNCC4)nc4ccccc4c32)cc1 [Compound 42, 1-(4-(aminophenyl)sulfonyl)-4-(piperazin-1-yl)-1H-pyrrolo[3,2-c]quinoline]	0.1	3						displacement % at 10^−6M, 5-HT6 (5-HT6 receptor [3]): 97^c %
O=S(=O)(c1cccc2ccccc12)n1ccc2c(N3CCNCC3)nc3ccccc3c21 [Compound 43, 1-(naphthalen-1-ylsulfonyl)-4-(piperazin-1-yl)-1H-pyrrolo[3,2-c]quinoline]			1990	4010	711			melting point: 158 to 160 °C
O=S(=O)(c1cccc2cccnc12)n1ccc2c(N3CCNCC3)nc3ccccc3c21 [Compound 45, 1-(quinolin-8-ylsulfonyl)-4-(piperazin-1-yl)-1H-pyrrolo[3,2-c]quinoline]			7810	6340	922	7.8	75.8	Ki (5-HT6 receptor [3]): 5 nM
Cc1c(S(=O)(=O)n2ccc3c(N4CCNCC4)nc4ccccc4c32)sc2ccc(Cl)cc12 [Compound 48, 1-((5-chloro-3-methylbenzo[b]thiophen-2-yl)sulfonyl)-4-(piperazin-1-yl)-1H-pyrrolo[3,2-c]quinoline]			8820	190	1470	2.7	37.7	Ki (5-HT6 receptor [3]): 16 nM
CN1CCN(c2nc3ccccc3c3c2ccn3S(=O)(=O)c2cccc3cccnc23)CC1 [Compound 59, 1-(quinolin-8-ylsulfonyl)-4-(4-methylpiperazin-1-yl)-1H-pyrrolo[3,2-c]quinolone]						16.9	61.0	Ki (5-HT6 receptor [3]; read-out: Ki 5-HT6, cloned human receptor in HEK293, three independent experiments, SEM ± 22%): < 1 nM; Ki (5-HT7 receptor; read-out: Ki 5-HT7, cloned human receptor in HEK293, three independent experiments, SEM ± 22%): 7690 nM; Ki (dopamine D2L receptor; [5]): 1920 nM; Ki (5-HT1A receptor; [6]): 208 nM
O=S(=O)(c1cccc(Cl)c1)n1ccc2c(N3CCOCC3)nc3ccccc3c21 [Compound 78, 1-((3-chlorophenyl)sulfonyl)-4-(morpholine-4-yl)-1H-pyrrolo[3,2-c]quinoline]			20100	37200	457000	21.3	23.8	Ki (5-HT6 receptor [3]): 157 nM
COc1ccc(NS(=O)(=O)c2sc3ccc(Cl)cc3c2C)cc1N1CCNCC1 [SB-271046, reference compound]								effective dose in the forced swim test (reference compounds) (Wistar rats [1]; rats, antidepressant-like activity, imipramine increased climbing time): 10 mg/kg; active dose in the conflict drinking test (Vogel test), increasing number of licks and shocks received (Wistar rats [2]): ≤ 10 mg/kg; dose effective against PCP-induced cognitive deficit in NOR test (Sprague-Dawley rats): 1 mg/kg
CN1C(=O)CN=C(c2ccccc2)c2cc(Cl)ccc21 [diazepam, reference compound]								active dose in the conflict drinking test (Vogel test), increasing number of licks and shocks received (Wistar rats [2]): 5 to 10 mg/kg
